Data reported in PMC3754872 (The Journal of Experimental Medicine, 2013).

Columns and labels:
[1] = target: T1, CXCR2 (Mus musculus, UniProt P35343); assay: displacement of […]-IL-8 from CXCR2-expressing L1.[…] cells; type: binding
T1 sequence (P35343 1-359): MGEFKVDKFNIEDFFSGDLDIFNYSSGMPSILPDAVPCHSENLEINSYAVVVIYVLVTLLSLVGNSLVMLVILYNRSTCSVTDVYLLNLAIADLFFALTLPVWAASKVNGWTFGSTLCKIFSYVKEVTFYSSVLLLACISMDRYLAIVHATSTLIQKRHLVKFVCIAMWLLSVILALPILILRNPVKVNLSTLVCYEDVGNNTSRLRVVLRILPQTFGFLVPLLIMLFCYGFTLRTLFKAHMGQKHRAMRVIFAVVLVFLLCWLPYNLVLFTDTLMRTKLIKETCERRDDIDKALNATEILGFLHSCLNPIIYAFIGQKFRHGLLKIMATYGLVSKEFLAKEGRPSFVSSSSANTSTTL

[2] = target: T1, CXCR2; assay: inhibition of agonist-stimulated; type: biochemical

| Compound | EC50 [1] [nM] | IC50 [2] [nM] |
| --- | --- | --- |
| CC(C)CCC(O)[C@@H](C)[C@H]1CC[C@H]2[C@@H]3CC=C4C[C@@H](O)CC[C@]4(C)[C@H]3CC[C@]12C (stereo partly drawn) [22R-HC] | 1320 ± 250 |  |
| O=C(Nc1ccc([N+](=O)[O-])cc1O)Nc1ccccc1Br [SB225002] |  | 16.6 ± 3.64 |
